Measurements published in PubChem BioAssay AID248 (DTP/NCI, 2004).
Values joined by “and” are separate entries in the source; they are usually repeats but may differ in a detail not shown here. Equal values may be shown once. Toxic doses and inconclusive results are not listed. Rule as the data show it: active = T/C of 150% or more; inactive = T/C below 125%.

Tested on: L1210 leukemia ip in BDF1 mice, survival T/C
Test: NCI In Vivo Anticancer Drug Screen. Data for tumor model L1210 Leukemia (intraperitoneal) in B6D2F1 (BDF1) mice
Conditions: endpoint: mean survival time, higher = longer survival
Protocol: The antitumor activity of compounds was measured in mice bearing transplantable tumors. Survival or tumor size were measured and the results are expressed as the measurement made in the treated group (T) divided by the measurement made in the vehicle treated control group (C). The tumor model used in this assay is L1210 Leukemia (intraperitoneal) in B6D2F1 (BDF1) mice

[1] = dose: 50.0 mg/kg/injection, schedule: Q01DX001 (ip), vehicle: carboxymethylcellulose (CMC)
[2] = dose: 50.0 mg/kg/injection, schedule: Q01DX009 (ip), vehicle: Klucel (hydroxypropylcellulose) (HPC)
[3] = dose: 100.0 mg/kg/injection, schedule: Q01DX001 (ip), vehicle: carboxymethylcellulose (CMC)
[4] = dose: 200.0 mg/kg/injection, schedule: Q01DX001 (ip), vehicle: carboxymethylcellulose (CMC)
[5] = dose: 400.0 mg/kg/injection, schedule: Q01DX001 (ip), vehicle: carboxymethylcellulose (CMC)
[6] = dose: 100.0 mg/kg/injection, schedule: Q01DX009 (ip), vehicle: saline with Tween-80
[7] = dose: 200.0 mg/kg/injection, schedule: Q01DX009 (ip), vehicle: saline with Tween-80
[8] = dose: 400.0 mg/kg/injection, schedule: Q01DX009 (ip), vehicle: saline with Tween-80
[9] = dose: 100.0 mg/kg/injection, schedule: Q01DX009 (ip), vehicle: carboxymethylcellulose (CMC)
[10] = dose: 200.0 mg/kg/injection, schedule: Q01DX009 (ip), vehicle: carboxymethylcellulose (CMC)
[11] = dose: 400.0 mg/kg/injection, schedule: Q01DX009 (ip), vehicle: carboxymethylcellulose (CMC)
[12] = dose: 100.0 mg/kg/injection, schedule: Q01DX001 (ip), vehicle: saline
[13] = dose: 200.0 mg/kg/injection, schedule: Q01DX001 (ip), vehicle: saline
[14] = dose: 400.0 mg/kg/injection, schedule: Q01DX001 (ip), vehicle: saline
[15] = dose: 100.0 mg/kg/injection, schedule: Q04DX003 (ip), vehicle: Klucel (hydroxypropylcellulose) (HPC)
[16] = dose: 200.0 mg/kg/injection, schedule: Q04DX003 (ip), vehicle: Klucel (hydroxypropylcellulose) (HPC)
[17] = dose: 400.0 mg/kg/injection, schedule: Q04DX003 (ip), vehicle: Klucel (hydroxypropylcellulose) (HPC)

Measured: T/C

O=[N+]([O-])CC(Nc1ccccc1)c1ccccc1 (stereo unspecified)
inactive: dose: 12.5 mg/kg/injection, schedule: Q01DX009 (ip), vehicle: Klucel (hydroxypropylcellulose) (HPC) 108 % of control | dose: 25.0 mg/kg/injection, schedule: Q01DX009 (ip), vehicle: Klucel (hydroxypropylcellulose) (HPC) 100 % of control | dose: 50.0 mg/kg/injection, schedule: Q01DX001 (ip), vehicle: Klucel (hydroxypropylcellulose) (HPC) 96 % of control and 110 % of control | [1] 102 % of control | [2] 102 % of control | dose: 100.0 mg/kg/injection, schedule: Q01DX001 (ip), vehicle: Klucel (hydroxypropylcellulose) (HPC) 97 % of control and 98 % of control | [3] 102 % of control | dose: 200.0 mg/kg/injection, schedule: Q01DX001 (ip), vehicle: Klucel (hydroxypropylcellulose) (HPC) 102 % of control and 107 % of control | [4] 100 % of control | dose: 400.0 mg/kg/injection, schedule: Q01DX001 (ip), vehicle: Klucel (hydroxypropylcellulose) (HPC) 105 % of control | [5] 90 % of control

COc1cc(Cl)ccc1NC(=O)COc1ccc(Cl)cc1
inactive: [6] 92 % of control | [7] 92 % of control | [8] 86 % of control

O=P(NNc1ccccc1)(NNc1ccccc1)c1ccccc1
inactive: [9] 90 % of control | [10] 88 % of control | [11] 92 % of control

Nc1ncnc2c1ncn2C1OC(CO)C(O)C1N (stereo unspecified)
inactive: [1] 100 % of control | dose: 50.0 mg/kg/injection, schedule: Q01DX001 (ip), vehicle: saline 103 % of control and 108 % of control | [3] 110 % of control | [12] 98 % of control and 103 % of control | [4] 100 % of control | [13] 90 % of control and 108 % of control | [5] 98 % of control | [14] 100 % of control and 116 % of control

Cc1ccc(N=Nc2cc(C)c(N)cc2N)c(S(=O)(=O)O)c1
inactive: dose: 100.0 mg/kg/injection, schedule: Q04DX003 (ip), vehicle: other 96 % of control | dose: 200.0 mg/kg/injection, schedule: Q04DX003 (ip), vehicle: other 105 % of control | dose: 400.0 mg/kg/injection, schedule: Q04DX003 (ip), vehicle: other 103 % of control

C=CC#N
inactive: dose: 6.0 mg/kg/injection, schedule: Q01DX009 (ip), vehicle: saline 95 % of control | dose: 12.0 mg/kg/injection, schedule: Q01DX009 (ip), vehicle: saline 93 % of control | dose: 12.5 mg/kg/injection, schedule: Q01DX009 (ip), vehicle: saline 98 % of control | dose: 25.0 mg/kg/injection, schedule: Q01DX009 (ip), vehicle: saline 93 % of control | dose: 50.0 mg/kg/injection, schedule: Q01DX009 (ip), vehicle: carboxymethylcellulose (CMC) 93 % of control | dose: 50.0 mg/kg/injection, schedule: Q01DX009 (ip), vehicle: saline 94 % of control and 105 % of control | dose: 50.0 mg/kg/injection, schedule: Q04DX003 (ip), vehicle: saline 91 % of control | [9] 92 % of control | [4] 90 % of control | [10] 93 % of control | [5] 95 % of control | [11] 97 % of control | dose: 600.0 mg/kg/injection, schedule: Q01DX001 (ip), vehicle: carboxymethylcellulose (CMC) 98 % of control | dose: 600.0 mg/kg/injection, schedule: Q01DX009 (ip), vehicle: carboxymethylcellulose (CMC) 89 % of control | dose: 800.0 mg/kg/injection, schedule: Q01DX001 (ip), vehicle: carboxymethylcellulose (CMC) 93 % of control | dose: 800.0 mg/kg/injection, schedule: Q01DX009 (ip), vehicle: carboxymethylcellulose (CMC) 95 % of control

CCOc1ccc(C(=O)Cc2ccccc2)cc1
inactive: dose: 100.0 mg/kg/injection, schedule: Q04DX003 (ip), vehicle: saline with Tween-80 89 % of control | dose: 200.0 mg/kg/injection, schedule: Q04DX003 (ip), vehicle: saline with Tween-80 86 % of control | dose: 400.0 mg/kg/injection, schedule: Q04DX003 (ip), vehicle: saline with Tween-80 91 % of control

CCCCCCCCCCCCCCCCCCSc1ccccc1
inactive: [15] 93 % of control | [16] 93 % of control | [17] 94 % of control

O=S(=O)(/C=C(/Cl)c1ccccc1)c1ccccc1
inactive: dose: 25.0 mg/kg/injection, schedule: Q01DX009 (ip), vehicle: acetone 92 % of control | dose: 50.0 mg/kg/injection, schedule: Q01DX009 (ip), vehicle: acetone 90 % of control | dose: 100.0 mg/kg/injection, schedule: Q01DX001 (ip), vehicle: acetone 101 % of control | dose: 100.0 mg/kg/injection, schedule: Q04DX003 (ip), vehicle: acetone 103 % of control | dose: 200.0 mg/kg/injection, schedule: Q01DX001 (ip), vehicle: acetone 102 % of control | dose: 400.0 mg/kg/injection, schedule: Q01DX001 (ip), vehicle: acetone 104 % of control

O=C(CNC(=O)Nc1ccc(Cl)c(Cl)c1)N/N=C/c1c(O)ccc2ccccc12
inactive: dose: 50.0 mg/kg/injection, schedule: Q01DX009 (ip), vehicle: saline with Tween-80 93 % of control | [6] 93 % of control | [7] 91 % of control

CCOC(=O)C1(C)OC1c1ccc2c(c1)OCO2 (stereo unspecified)
inactive: [6] 106 % of control | [7] 95 % of control | [8] 103 % of control

O=[N+]([O-])c1cc2c(c3cccnc13)COCO2
inactive: [12] 102 % of control | [13] 100 % of control | [14] 94 % of control

Clc1cc[n+](-c2ccncc2)cc1
inactive: [12] 103 % of control | dose: 100.0 mg/kg/injection, schedule: Q01DX009 (ip), vehicle: saline 100 % of control and 105 % of control | dose: 100.0 mg/kg/injection, schedule: Q04DX002 (ip), vehicle: saline 97 % of control and 103 % of control | dose: 100.0 mg/kg/injection, schedule: Q04DX003 (ip), vehicle: saline 95 % of control | [13] 90 % of control | dose: 200.0 mg/kg/injection, schedule: Q01DX009 (ip), vehicle: saline 105 % of control and 89 % of control | dose: 200.0 mg/kg/injection, schedule: Q04DX002 (ip), vehicle: saline 94 % of control and 89 % of control | dose: 200.0 mg/kg/injection, schedule: Q04DX003 (ip), vehicle: saline 101 % of control | [14] 97 % of control | dose: 400.0 mg/kg/injection, schedule: Q01DX009 (ip), vehicle: saline 97 % of control | dose: 400.0 mg/kg/injection, schedule: Q04DX002 (ip), vehicle: saline 100 % of control and 92 % of control | dose: 400.0 mg/kg/injection, schedule: Q04DX003 (ip), vehicle: saline 88 % of control

O=S(=O)(C1CC1c1ccccc1)N1CCOCC1 (stereo unspecified)
inactive: [12] 101 % of control | [13] 106 % of control | [14] 95 % of control

COc1ccc(OC)c(NCCCN2C(=O)c3ccccc3C2=O)c1
inactive: dose: 100.0 mg/kg/injection, schedule: Q04DX002 (ip), vehicle: Klucel (hydroxypropylcellulose) (HPC) 87 % of control | dose: 200.0 mg/kg/injection, schedule: Q04DX002 (ip), vehicle: Klucel (hydroxypropylcellulose) (HPC) 102 % of control | dose: 400.0 mg/kg/injection, schedule: Q04DX002 (ip), vehicle: Klucel (hydroxypropylcellulose) (HPC) 91 % of control

COc1ccc(C)cc1NC(=S)NC(=O)c1cccc2ccccc12
inactive: [2] 93 % of control | dose: 100.0 mg/kg/injection, schedule: Q01DX009 (ip), vehicle: Klucel (hydroxypropylcellulose) (HPC) 87 % of control | [15] 95 % of control | dose: 200.0 mg/kg/injection, schedule: Q01DX009 (ip), vehicle: Klucel (hydroxypropylcellulose) (HPC) 88 % of control | [16] 94 % of control | dose: 300.0 mg/kg/injection, schedule: Q01DX009 (ip), vehicle: Klucel (hydroxypropylcellulose) (HPC) 104 % of control and 87 % of control

CCCc1c(O)ccc(C)c1C
inactive: dose: 100.0 mg/kg/injection, schedule: Q01DX001 (ip), vehicle: other 91 % of control | dose: 200.0 mg/kg/injection, schedule: Q01DX001 (ip), vehicle: other 103 % of control

Nc1nc(-c2ccccc2N=NN2CCN(N=Nc3ccccc3-c3nc(N)c4ccccc4n3)CC2)nc2ccccc12
inactive: [15] 101 % of control | [16] 96 % of control

Cc1cc(C)c(C)c(NCCCS(=O)(=O)O)c1C
inactive: [15] 98 % of control | [16] 102 % of control | [17] 100 % of control
